Here are results for three compounds from doi:10.1101/2020.07.01.182642v1 (biorxiv, 2020).

Among the targets are CAMK1D (Homo sapiens, UniProt Q8IU85); CDK16 (Homo sapiens, UniProt Q00536); CDK2 (Homo sapiens, UniProt P24941); CDK8 (Homo sapiens, UniProt P49336); CDKL1 (Homo sapiens, UniProt Q00532); CHEK2 (Homo sapiens, UniProt O96017); FES (Homo sapiens, UniProt P07332); PAK7 (Homo sapiens, UniProt Q9P286); PLK1 (Homo sapiens, UniProt P53350); PRKAA1 (Homo sapiens, UniProt Q13131); RPS6KA1 (Homo sapiens, UniProt Q15418); RPS6KA6 (Homo sapiens, UniProt Q9UK32); STK26 (Homo sapiens, UniProt Q9P289); TNIK (Homo sapiens, UniProt Q9UKE5); VRK2 (Homo sapiens, UniProt Q86Y07); ZAK (Homo sapiens, UniProt Q9NYL2).

Common to all, as to details: binder
A further assay addresses T1, DYRK2 (Homo sapiens, UniProt Q92630).
T1 sequence (Q92630 1-601): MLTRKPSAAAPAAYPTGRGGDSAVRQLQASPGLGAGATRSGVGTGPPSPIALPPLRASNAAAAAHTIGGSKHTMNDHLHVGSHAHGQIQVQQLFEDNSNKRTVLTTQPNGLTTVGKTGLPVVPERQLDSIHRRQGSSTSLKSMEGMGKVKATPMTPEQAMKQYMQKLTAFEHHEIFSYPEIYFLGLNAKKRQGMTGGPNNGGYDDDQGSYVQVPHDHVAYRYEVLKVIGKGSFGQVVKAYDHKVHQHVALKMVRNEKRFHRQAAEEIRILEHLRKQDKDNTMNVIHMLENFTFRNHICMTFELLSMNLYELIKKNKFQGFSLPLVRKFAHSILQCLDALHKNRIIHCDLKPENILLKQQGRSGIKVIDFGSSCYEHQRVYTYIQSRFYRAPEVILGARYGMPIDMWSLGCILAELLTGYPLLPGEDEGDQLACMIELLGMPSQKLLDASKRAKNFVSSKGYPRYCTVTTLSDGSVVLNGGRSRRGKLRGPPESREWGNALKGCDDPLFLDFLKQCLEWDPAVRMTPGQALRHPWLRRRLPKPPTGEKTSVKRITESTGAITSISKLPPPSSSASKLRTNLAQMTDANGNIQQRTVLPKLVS

A further assay has as its target T2, STK17B (Homo sapiens, UniProt O94768).
T2 sequence (O94768 1-372): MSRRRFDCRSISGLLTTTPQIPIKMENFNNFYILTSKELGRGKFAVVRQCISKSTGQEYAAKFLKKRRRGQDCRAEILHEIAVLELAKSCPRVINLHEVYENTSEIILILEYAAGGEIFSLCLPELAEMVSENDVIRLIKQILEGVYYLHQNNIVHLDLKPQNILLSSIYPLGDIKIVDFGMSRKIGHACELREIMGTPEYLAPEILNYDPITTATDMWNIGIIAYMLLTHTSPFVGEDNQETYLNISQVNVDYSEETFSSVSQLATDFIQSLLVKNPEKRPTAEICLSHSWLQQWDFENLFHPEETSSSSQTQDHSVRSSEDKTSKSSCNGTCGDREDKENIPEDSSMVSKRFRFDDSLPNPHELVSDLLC

CDKL1, sequence (Q00532 whole entry): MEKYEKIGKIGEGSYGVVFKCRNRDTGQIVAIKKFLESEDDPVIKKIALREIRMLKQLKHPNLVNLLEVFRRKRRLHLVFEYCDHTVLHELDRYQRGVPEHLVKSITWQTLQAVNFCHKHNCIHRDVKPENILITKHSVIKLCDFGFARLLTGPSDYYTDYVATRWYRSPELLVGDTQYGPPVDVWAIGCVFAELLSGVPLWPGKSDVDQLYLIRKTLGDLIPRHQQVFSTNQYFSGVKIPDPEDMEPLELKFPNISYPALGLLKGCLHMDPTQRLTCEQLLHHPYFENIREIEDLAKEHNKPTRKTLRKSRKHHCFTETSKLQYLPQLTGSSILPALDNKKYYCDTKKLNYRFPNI
CDK8, sequence (P49336 whole entry): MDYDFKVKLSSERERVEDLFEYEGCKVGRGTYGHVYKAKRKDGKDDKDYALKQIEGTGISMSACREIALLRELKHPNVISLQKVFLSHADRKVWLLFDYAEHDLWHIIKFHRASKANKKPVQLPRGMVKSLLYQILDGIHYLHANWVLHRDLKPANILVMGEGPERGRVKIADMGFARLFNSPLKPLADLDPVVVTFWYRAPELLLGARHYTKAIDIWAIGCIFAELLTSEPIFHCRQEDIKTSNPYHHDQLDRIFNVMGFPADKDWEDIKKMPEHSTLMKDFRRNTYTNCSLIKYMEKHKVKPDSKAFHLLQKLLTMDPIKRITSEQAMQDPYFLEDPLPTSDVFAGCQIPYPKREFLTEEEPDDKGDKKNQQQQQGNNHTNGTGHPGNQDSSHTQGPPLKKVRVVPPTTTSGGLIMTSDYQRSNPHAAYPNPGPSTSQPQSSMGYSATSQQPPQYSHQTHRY
PAK7, sequence (Q9P286 whole entry): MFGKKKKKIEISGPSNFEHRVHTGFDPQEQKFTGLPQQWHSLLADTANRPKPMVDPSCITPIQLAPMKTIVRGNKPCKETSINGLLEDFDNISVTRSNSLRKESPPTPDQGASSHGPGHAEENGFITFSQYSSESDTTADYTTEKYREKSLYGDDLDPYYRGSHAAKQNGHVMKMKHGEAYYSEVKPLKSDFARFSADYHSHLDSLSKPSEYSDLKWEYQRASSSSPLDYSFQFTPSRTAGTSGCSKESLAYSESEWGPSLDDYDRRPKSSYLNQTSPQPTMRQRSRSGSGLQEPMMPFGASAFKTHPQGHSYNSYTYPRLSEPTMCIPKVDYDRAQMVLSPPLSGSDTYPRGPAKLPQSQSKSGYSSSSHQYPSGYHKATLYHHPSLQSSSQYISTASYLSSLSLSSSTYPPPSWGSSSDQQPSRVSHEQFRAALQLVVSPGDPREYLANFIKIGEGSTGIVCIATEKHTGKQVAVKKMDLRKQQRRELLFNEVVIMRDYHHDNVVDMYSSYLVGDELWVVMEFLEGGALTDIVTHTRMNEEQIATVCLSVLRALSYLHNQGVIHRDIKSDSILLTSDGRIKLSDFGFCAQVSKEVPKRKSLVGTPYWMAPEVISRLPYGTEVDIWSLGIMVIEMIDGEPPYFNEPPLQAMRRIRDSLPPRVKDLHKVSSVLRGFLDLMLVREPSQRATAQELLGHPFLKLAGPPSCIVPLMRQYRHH
RPS6KA6, sequence (Q9UK32 whole entry): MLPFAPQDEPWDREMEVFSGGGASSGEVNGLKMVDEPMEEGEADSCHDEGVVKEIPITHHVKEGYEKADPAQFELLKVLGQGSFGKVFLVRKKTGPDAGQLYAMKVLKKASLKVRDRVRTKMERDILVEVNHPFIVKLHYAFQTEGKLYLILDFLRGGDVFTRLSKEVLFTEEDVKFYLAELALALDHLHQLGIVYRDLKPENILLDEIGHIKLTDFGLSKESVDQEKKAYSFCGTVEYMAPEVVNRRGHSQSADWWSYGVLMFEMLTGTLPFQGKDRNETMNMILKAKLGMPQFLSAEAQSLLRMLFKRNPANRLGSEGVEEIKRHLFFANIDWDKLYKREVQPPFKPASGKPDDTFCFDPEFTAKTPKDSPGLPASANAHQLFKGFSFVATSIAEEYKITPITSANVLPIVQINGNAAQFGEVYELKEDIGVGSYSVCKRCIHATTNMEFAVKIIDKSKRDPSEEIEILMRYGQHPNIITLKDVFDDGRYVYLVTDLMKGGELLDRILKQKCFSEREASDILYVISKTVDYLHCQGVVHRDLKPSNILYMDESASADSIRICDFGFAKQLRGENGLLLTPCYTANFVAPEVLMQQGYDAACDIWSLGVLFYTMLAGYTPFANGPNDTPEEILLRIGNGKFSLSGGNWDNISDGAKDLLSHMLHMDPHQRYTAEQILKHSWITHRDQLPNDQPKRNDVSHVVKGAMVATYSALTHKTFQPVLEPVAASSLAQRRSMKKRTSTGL
ZAK, sequence (Q9NYL2 whole entry): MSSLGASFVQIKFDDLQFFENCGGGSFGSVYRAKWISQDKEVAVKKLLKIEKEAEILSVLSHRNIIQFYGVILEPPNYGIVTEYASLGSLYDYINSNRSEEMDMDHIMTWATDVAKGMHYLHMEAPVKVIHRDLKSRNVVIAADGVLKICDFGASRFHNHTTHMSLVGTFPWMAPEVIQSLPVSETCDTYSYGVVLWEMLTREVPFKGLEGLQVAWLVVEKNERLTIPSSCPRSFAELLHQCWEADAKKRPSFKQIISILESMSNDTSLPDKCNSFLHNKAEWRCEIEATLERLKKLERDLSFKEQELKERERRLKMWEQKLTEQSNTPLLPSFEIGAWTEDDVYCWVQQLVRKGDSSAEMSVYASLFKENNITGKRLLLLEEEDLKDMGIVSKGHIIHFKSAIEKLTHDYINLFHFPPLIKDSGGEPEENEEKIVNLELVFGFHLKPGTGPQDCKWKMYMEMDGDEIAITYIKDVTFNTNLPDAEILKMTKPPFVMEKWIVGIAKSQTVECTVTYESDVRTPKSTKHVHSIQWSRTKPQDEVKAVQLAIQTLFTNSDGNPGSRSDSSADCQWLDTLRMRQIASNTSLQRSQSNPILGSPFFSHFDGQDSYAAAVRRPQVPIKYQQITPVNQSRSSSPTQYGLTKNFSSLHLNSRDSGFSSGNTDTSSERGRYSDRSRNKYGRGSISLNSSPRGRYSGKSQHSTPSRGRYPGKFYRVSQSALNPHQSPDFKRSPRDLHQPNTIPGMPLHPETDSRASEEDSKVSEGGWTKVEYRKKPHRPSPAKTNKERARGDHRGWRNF
CDK16, sequence (Q00536 whole entry): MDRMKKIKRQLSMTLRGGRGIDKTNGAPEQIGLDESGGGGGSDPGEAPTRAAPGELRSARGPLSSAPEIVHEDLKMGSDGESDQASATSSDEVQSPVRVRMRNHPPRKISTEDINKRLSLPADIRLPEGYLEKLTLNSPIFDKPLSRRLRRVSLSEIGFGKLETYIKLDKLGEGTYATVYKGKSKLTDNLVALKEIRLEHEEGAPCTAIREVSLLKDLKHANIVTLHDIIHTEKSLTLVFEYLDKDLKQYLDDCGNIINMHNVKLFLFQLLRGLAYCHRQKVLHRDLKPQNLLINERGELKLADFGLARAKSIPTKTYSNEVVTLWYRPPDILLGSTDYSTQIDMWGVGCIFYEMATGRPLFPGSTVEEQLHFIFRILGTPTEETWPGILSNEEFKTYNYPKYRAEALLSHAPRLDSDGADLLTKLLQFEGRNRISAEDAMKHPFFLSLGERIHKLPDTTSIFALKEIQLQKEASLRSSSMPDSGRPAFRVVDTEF
RPS6KA1, sequence (Q15418 whole entry): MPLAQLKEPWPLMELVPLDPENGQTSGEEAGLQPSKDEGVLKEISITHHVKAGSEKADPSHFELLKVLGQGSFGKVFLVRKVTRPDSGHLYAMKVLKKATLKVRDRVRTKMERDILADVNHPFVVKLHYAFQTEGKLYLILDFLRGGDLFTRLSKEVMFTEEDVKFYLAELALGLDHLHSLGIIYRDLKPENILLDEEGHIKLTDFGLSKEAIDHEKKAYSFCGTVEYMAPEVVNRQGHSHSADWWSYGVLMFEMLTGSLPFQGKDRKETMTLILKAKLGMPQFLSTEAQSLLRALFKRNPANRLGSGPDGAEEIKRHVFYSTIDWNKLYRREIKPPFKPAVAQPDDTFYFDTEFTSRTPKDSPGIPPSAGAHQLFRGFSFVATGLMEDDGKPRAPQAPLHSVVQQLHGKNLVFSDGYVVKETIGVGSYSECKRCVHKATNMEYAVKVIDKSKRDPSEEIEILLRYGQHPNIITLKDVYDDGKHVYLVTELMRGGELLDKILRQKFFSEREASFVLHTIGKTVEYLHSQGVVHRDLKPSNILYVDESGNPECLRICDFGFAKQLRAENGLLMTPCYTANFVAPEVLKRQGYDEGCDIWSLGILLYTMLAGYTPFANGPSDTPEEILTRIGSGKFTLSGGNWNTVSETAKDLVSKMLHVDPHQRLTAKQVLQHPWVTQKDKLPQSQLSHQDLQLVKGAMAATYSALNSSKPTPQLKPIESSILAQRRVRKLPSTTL
CHEK2, sequence (O96017 whole entry): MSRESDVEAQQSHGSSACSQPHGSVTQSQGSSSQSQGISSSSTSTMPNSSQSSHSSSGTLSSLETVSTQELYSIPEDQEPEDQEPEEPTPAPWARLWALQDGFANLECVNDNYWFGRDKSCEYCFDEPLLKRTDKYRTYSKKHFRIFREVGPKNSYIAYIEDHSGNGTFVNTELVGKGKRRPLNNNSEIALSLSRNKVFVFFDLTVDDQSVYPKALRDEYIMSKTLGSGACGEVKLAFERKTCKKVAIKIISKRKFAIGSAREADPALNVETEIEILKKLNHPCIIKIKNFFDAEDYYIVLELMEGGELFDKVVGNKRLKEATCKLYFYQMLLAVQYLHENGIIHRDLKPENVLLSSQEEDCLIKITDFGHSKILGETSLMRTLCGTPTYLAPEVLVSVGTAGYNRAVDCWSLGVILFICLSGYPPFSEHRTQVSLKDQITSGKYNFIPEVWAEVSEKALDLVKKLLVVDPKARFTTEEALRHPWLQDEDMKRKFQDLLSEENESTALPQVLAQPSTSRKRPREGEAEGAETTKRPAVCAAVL

For the compound `CC(=O)c1cccc(-c2cnc3ccc(NCC4CC4)nn23)c1` [compound 1, K00135], the “ΔTm inhibitor 1” value on CAMK1D was determined as 0.6 °C; at CDK16 it was 0.5 °C; on CDK2, 1.5 °C; at CDK8 it was 2.7 °C; at CDKL1, 0.2 °C; on CHEK2 it was 0.8 °C. Besides, the “ΔTm inhibitor 1” value amounted to 4.1 °C at DYRK2; 0.6 °C at FES; 0.4 °C on PAK7; 2.0 °C on PLK1; 1.3 °C on PRKAA1; 5.2 °C at RPS6KA1. Moreover, the “ΔTm inhibitor 1” value at RPS6KA6 amounted to 4.2 °C; at STK17B, 4.2 °C; on STK26, 0.3 °C; at TNIK it was 1.2 °C; at VRK2, 1.5 °C; on ZAK, 1.4 °C.
For `CCN1/C(=C/C(C)=O)Sc2ccc(OC)cc21` [compound 2, TG003], the “ΔTm inhibitor 2” value at CAMK1D was 0.0 °C; at CDK16, -0.4 °C; on CDK2, -0.1 °C; on CDK8 it was 0.1 °C; at CDKL1, 0.4 °C; on CHEK2, 0.1 °C. Further, the “ΔTm inhibitor 2” value at DYRK2 is 7.3 °C; on FES it was -0.1 °C; at PAK7 it was -0.1 °C; on PLK1, 0.3 °C; at PRKAA1, -0.3 °C; at RPS6KA1 it was 0.6 °C. For the same compound, the “ΔTm inhibitor 2” value on RPS6KA6 is 0.4 °C; on STK17B, 1.0 °C; at STK26, -0.3 °C; at TNIK it was 0.1 °C; on VRK2 it was 0.2 °C; at ZAK, -0.3 °C.
`Nc1nccc(-c2ccc3noc(-c4ccc(Cl)cc4)c3c2)n1` [compound 4, K00972]: the “ΔTm inhibitor 4” value at CAMK1D is 0.2 °C; at CDK16, 1.2 °C; on CDK2 it was 0.3 °C; on CDK8, 1.9 °C; on CDKL1, 0.8 °C; on CHEK2, 0.5 °C. For the same compound, the “ΔTm inhibitor 4” value came to 8.9 °C on DYRK2; 0.3 °C on FES; 0.6 °C on PAK7; 0.4 °C at PLK1; 0.5 °C on PRKAA1; 0.6 °C at RPS6KA1. The “ΔTm inhibitor 4” value came out at 2.1 °C at RPS6KA6; 6.9 °C on STK17B; 0.1 °C at STK26; 1.2 °C on TNIK; 0.0 °C on VRK2; 0.3 °C on ZAK.
